# Target: T1, MBP-MtHPS (MtHPS, HPS, halimadienyl-diphosphate synthase, Rv3377c) (Mycobacterium tuberculosis, UniProt O50406)
# T1 sequence (O50406 1-501): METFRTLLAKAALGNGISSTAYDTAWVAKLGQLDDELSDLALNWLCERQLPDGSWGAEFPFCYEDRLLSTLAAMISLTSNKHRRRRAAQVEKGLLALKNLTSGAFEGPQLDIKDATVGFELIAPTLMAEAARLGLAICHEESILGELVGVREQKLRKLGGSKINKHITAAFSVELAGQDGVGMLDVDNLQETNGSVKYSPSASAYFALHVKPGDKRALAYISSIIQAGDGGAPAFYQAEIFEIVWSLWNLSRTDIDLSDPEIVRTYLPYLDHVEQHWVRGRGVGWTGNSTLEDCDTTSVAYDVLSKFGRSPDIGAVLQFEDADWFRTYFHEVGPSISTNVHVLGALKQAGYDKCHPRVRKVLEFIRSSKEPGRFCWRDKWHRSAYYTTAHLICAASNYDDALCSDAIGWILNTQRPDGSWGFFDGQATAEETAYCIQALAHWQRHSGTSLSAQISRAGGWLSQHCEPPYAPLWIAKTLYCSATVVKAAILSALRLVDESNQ
# Experiment: GC-FID conversion of GGPP to HPP, substrate inhibition equation
# Type: biochemical
# Conditions: 0.1 mM Mg2+, pH 7.75, 25 nM enzyme, 1 min
structure (smiles),measurement,value
"CC(C)=CCC/C(C)=C/CC/C(C)=C/CC/C(C)=C/COP(=O)(O)OP(=O)(O)O [1a, GGPP]",Ki,18 ± 6 µM
